# Results reported in ChEMBL document CHEMBL1201862, “PubChem BioAssay data set” (2004).
# The source made the active and inactive calls.
# What was measured:
# [1] = biological target: Induced myeloid leukemia cell differentiation protein Mcl-1 (Homo sapiens, UniProt Q07820); experiment: blockers of MCL1 binding to BIM peptide – biochemical, fluorescence polarization, BIM-BH3 peptide, 1536-well, dose response (AID 2217)
# Bcl-2-like protein 1 = Bcl-2-like protein 1 (Homo sapiens, UniProt Q07817); experiment: blockers of BCLXL peptide binding – biochemical, fluorescence polarization, 1536-well, selectivity assay for MCL1 inhibitor project, dose response (AID 2218)
# Chain of Bcl-2-like protein 1 (Q07817 whole entry): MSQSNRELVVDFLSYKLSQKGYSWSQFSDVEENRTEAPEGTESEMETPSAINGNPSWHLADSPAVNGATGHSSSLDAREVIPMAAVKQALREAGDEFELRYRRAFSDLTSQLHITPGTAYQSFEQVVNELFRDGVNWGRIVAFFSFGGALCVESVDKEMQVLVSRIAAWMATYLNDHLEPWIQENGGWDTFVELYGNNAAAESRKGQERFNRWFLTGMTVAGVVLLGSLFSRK
# BJ [2] = experiment: cells; format: functional, cell-based; conditions: Homo sapiens
# BJ [3] = experiment: BJ-TERT-LT-ST fibroblast viability loss – cell-based, RAS-independent, luminescence, dose response (AID 1935); format: functional; conditions: Homo sapiens;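 note: BJ fibroblasts immortalized with TERT plus LT and ST oncogenes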
# BJ [4] = experiment: BJ-TERT fibroblast viability loss – cell-based, RAS-independent, luminescence, dose response (AID 1933); format: functional; conditions: Homo sapiens
# [5] = DRD fibroblast viability loss – cell-based, non-viral oncogenic, luminescence, dose response (AID 1934); format: functional; conditions: Homo sapiens
# [6] = Luminescence-based dose response cell-based high throughput screening assay for cytotoxic compounds using the IEC-6 intestinal epithelial cell line. [Related pubchem assays: 1858 (Summary AID.), 1825 (Counterscreen.), 1907 (Confirmation screen.)]; format: functional
# [7] = biological target: Diphosphomevalonate decarboxylase (Streptococcus pneumoniae serotype 2 (strain D39 / NCTC 7466), UniProt Q9FD53); experiment: diphosphomevalonate decarboxylase inhibitor confirmation – biochemical, cuvette format, coupled NADH fluorescence (AID 1028); format: functional
# Chain of Diphosphomevalonate decarboxylase (Q9FD53 whole entry): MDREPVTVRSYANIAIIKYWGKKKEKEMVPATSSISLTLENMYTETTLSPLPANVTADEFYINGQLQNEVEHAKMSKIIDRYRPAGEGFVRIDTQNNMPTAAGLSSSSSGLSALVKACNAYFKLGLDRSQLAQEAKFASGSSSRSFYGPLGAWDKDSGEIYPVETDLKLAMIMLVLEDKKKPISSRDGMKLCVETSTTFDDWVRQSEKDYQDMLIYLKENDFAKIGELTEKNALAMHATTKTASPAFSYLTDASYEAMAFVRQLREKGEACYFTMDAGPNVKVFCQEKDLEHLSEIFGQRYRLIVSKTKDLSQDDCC
# Vero [8] = experiment: cells; format: functional; conditions: Chlorocebus sabaeus
# [9] = biological target: T1, High affinity choline transporter 1 (Homo sapiens, UniProt Q9GZV3); experiment: human choline transporter blockers, potency – cell-based, 5-point CRC, membrane potential dye, dose response (AID 504840); format: functional
# T1 sequence (Q9GZV3 whole entry): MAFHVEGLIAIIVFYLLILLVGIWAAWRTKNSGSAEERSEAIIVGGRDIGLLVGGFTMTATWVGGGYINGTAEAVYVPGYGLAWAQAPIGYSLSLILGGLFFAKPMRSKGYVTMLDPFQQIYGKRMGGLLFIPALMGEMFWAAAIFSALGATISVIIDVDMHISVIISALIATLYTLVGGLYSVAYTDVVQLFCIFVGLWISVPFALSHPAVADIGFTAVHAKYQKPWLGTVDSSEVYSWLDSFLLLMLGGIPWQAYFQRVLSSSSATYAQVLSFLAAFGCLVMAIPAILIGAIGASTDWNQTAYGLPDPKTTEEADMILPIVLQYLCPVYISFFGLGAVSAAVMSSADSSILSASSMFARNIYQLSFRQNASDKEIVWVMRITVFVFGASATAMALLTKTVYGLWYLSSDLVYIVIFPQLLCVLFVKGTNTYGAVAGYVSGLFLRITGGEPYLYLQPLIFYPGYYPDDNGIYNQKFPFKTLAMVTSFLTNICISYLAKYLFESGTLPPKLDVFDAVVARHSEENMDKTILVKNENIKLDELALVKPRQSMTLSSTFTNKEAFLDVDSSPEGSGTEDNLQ
# [10] = biological target: T1, High affinity choline transporter 1; experiment: human choline transporter blockers, potency – cell-based, 10-point CRC, membrane potential dye, dose response (AID 588401); format: functional;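 note: membrane potential dye fluorescence of choline-evoked depolarization via CHT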
# Vero [11] = experiment: cells; format: functional, cell-based; conditions: Chlorocebus sabaeus
# Vero [12] = experiment: inhibition of WNV-induced cytopathic effect – cell-based, CPE readout (AID 1621); format: functional; conditions: Chlorocebus sabaeus
# [13] = biological target: Fructose-bisphosphate aldolase (Mycobacterium tuberculosis, UniProt P9WQA3); experiment: Fluorescence-based biochemical high throughput dose response assay for inhibitors of the fructose-bisphosphate aldolase (FBA) of M. tuberculosis.; format: functional
# Chain of Fructose-bisphosphate aldolase (P9WQA3 whole entry): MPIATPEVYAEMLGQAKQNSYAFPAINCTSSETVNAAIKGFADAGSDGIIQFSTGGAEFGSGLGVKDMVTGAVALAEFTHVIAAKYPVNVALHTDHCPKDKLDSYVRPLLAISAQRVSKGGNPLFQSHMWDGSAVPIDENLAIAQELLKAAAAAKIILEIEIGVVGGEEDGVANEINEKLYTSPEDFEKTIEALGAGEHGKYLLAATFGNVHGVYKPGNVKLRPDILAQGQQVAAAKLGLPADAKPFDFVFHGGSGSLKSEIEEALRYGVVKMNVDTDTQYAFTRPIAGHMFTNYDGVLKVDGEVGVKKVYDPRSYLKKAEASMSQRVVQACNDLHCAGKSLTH
# [14] = biological target: Peroxisome proliferator-activated receptor gamma/Nuclear receptor corepressor 2 (Homo sapiens, UniProt P37231+Q9Y618); experiment: Counterscreen for NR2E3 inverse agonists: TR-FRET-based biochemical high throughput dose response assay to identify inverse agonists of the interaction between peroxisome proliferator-activated receptor gamma (PPARg) and nuclear receptor co-repressor 2 (NCOR2).; format: functional
# Chain of Peroxisome proliferator-activated receptor gamma/Nuclear receptor corepressor 2 (P37231 whole entry): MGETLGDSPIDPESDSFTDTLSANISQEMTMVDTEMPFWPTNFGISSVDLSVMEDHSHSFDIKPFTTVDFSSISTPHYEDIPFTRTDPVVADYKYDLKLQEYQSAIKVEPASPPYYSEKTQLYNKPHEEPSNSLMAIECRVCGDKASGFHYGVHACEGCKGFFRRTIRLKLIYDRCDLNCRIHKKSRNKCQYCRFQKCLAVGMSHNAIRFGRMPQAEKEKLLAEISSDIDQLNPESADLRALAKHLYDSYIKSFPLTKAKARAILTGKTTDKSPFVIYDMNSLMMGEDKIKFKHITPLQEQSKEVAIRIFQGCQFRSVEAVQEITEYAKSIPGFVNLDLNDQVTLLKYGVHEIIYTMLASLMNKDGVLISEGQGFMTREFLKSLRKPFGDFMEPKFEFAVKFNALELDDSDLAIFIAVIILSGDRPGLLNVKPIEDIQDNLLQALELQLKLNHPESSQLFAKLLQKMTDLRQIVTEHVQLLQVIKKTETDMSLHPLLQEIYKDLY
# Chain of Peroxisome proliferator-activated receptor gamma/Nuclear receptor corepressor 2 (Q9Y618 whole entry): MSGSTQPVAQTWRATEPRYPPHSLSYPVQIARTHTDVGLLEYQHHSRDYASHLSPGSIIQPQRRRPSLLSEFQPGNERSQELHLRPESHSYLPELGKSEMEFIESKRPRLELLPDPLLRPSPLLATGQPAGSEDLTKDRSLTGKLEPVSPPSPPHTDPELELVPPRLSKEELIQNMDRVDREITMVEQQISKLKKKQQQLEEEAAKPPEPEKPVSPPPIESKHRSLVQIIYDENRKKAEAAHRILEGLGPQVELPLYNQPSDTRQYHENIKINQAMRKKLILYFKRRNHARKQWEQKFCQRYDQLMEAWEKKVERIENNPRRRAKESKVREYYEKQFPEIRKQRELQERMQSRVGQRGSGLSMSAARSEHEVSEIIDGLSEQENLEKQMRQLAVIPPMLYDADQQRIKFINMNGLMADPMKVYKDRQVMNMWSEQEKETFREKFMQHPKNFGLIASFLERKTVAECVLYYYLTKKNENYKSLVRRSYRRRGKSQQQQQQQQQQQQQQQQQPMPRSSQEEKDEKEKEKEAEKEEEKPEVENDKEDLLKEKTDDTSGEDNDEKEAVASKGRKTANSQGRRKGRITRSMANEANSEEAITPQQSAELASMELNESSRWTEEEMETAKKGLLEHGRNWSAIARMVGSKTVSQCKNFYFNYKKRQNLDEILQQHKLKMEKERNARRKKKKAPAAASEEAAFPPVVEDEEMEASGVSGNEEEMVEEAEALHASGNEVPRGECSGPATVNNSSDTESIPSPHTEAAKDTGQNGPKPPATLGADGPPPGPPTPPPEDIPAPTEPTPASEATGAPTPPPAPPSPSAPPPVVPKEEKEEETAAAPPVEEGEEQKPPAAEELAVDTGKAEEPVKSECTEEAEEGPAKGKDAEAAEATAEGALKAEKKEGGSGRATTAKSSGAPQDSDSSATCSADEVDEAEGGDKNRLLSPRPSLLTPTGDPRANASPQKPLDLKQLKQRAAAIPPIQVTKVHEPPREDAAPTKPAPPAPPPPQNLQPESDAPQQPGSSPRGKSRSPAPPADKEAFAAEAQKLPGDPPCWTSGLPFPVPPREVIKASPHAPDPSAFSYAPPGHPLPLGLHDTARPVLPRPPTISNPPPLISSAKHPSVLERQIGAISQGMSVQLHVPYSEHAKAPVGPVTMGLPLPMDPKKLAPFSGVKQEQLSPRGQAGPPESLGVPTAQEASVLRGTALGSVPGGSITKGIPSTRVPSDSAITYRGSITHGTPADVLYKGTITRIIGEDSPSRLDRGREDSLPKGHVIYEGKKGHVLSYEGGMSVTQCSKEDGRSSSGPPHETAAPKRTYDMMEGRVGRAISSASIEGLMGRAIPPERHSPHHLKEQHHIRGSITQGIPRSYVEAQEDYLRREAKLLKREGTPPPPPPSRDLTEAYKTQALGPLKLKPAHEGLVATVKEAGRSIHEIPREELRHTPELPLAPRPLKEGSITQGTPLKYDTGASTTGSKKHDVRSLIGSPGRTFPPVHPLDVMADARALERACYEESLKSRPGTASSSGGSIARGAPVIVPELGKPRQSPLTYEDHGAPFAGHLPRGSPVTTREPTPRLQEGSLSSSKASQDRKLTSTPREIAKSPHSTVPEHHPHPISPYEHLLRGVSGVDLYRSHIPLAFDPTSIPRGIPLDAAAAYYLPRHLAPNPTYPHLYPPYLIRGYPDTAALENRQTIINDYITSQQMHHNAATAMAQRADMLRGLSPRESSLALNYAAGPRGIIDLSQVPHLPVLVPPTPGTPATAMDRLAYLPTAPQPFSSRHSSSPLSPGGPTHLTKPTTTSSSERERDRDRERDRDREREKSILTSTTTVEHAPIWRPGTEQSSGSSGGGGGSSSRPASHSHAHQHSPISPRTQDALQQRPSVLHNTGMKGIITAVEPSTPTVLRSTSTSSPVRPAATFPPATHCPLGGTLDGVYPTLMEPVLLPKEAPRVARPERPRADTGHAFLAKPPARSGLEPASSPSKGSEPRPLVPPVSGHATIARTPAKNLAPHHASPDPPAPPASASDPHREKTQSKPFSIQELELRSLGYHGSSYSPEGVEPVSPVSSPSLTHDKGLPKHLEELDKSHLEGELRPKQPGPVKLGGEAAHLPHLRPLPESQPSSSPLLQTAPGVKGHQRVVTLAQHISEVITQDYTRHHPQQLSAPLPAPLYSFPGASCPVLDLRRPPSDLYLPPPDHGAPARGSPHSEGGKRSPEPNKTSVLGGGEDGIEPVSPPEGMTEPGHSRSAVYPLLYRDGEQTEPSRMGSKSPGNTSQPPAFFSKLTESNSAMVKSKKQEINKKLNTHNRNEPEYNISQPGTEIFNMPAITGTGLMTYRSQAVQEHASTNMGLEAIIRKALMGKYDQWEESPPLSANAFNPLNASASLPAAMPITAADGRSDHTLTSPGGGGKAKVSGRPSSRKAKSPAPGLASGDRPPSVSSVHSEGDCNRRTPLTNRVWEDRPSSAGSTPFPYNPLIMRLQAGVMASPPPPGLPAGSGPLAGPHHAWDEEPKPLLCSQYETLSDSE
# [15] = biological target: Voltage-gated inwardly rectifying potassium channel KCNH2 (Homo sapiens, UniProt Q12809); experiment: concentration-dependent hERG rescue from blockers – cell-based, thallium flux, dose response (AID 2121); format: ADME
# [16] = biological target: Photoreceptor-specific nuclear receptor (Homo sapiens, UniProt Q9Y5X4); experiment: ligands suppressing NR2E3 nuclear receptor activity – biochemical, TR-FRET, dose response (AID 463256); format: functional
# Genome polyprotein = Genome polyprotein (Hepatitis C virus, UniProt Q2Q167); experiment: disruption of hepatitis C core self-association – biochemical, TR-FRET, dose response (AID 2159); parameters: species or system Hepacivirus hominis;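 note: blocks dimerization of HCV core protein measured by TR-FRET between tagged core106 pairs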
# Chain of Genome polyprotein (Q2Q167 whole entry): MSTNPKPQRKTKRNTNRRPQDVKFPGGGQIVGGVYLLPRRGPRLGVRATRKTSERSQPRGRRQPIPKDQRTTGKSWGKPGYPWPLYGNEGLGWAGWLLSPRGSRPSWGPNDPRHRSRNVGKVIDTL
# [17] = biological target: T2, Tyrosine-protein phosphatase non-receptor type 7 (Homo sapiens, UniProt P35236); experiment: HePTP tyrosine phosphatase activity blockers – biochemical, absorbance, leukemia target, primary screen (AID 521); format: functional
# T2 sequence (P35236 whole entry): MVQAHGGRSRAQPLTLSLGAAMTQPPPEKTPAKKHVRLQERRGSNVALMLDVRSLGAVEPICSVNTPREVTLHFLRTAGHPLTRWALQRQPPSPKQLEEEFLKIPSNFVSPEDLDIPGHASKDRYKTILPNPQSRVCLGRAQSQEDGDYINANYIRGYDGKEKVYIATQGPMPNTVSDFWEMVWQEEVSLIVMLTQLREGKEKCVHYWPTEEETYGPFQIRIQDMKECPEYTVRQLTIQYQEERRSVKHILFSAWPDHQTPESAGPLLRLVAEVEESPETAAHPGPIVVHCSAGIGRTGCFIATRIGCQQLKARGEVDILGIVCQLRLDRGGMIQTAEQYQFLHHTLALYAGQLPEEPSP
# [18] = biological target: Luciferin 4-monooxygenase (Photinus pyralis, UniProt P08659); experiment: inhibition of purified Photinus pyralis luciferase – biochemical, luminescence, dose response (AID 1891)
# Chain of Luciferin 4-monooxygenase (P08659 whole entry): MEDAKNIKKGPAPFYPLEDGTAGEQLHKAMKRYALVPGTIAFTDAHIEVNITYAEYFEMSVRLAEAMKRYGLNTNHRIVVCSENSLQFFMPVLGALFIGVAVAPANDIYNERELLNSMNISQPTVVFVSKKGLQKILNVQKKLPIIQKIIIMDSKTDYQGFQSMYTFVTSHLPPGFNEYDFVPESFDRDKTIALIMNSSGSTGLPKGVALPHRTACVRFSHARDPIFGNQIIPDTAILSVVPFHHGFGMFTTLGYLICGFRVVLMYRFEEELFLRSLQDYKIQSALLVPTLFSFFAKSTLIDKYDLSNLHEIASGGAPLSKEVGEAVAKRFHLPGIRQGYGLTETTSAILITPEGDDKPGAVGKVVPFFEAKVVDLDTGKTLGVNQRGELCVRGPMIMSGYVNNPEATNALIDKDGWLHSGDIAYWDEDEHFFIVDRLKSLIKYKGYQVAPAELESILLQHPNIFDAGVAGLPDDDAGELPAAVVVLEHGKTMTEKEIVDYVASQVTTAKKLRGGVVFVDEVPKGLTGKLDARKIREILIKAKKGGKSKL
# [19] = Luminescence Cell-Based Dose Confirmation HTS to Identify Inhibitors of Platelet Dense Granule Release. [Related pubchem assays: 1663 (Primary HTS), 1678 (Summary of Project)]; format: functional
# [20] = Fluorescence Cell-Based Dose Response to Identify Inhibitors of Thrombin Receptor-Activating Peptide SFLLRN-Mediated P-Selectin Induction on Platelets. [Related pubchem assays: 1663 (Primary HTS), 1889 (retest at dose ), 1891 (counterscreen), 1678 (Project Summary)]; format: functional
# Estrogen receptor = biological target: T3, Estrogen receptor (Homo sapiens, UniProt P03372); experiment: ERα coactivator recruitment enhancers – biochemical, TR-FRET, ERα LBD, dose response (AID 737)
# T3 sequence (P03372 whole entry): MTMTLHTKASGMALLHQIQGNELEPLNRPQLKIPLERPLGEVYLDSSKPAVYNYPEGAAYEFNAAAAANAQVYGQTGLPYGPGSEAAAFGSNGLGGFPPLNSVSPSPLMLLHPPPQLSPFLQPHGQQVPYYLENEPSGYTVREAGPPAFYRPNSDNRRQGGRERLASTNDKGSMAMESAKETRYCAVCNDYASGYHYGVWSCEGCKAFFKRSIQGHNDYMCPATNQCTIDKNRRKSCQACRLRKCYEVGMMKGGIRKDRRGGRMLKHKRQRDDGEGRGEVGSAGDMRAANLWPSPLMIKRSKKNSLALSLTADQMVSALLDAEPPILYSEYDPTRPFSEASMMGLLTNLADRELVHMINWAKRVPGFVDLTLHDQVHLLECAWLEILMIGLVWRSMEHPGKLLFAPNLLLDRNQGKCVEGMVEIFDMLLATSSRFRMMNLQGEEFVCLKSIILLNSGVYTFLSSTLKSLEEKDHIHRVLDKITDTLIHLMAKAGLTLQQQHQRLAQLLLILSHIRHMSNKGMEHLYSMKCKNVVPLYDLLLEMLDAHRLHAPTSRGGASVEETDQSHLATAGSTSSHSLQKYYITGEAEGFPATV
# [21] = biological target: Protein-tyrosine kinase 2-beta (Homo sapiens, UniProt Q14289);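 note: potency of inhibitors of PYK2 kinase phosphorylation of poly-GT substrate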
# NADPH oxidase 1 = biological target: T4, NADPH oxidase 1 (Homo sapiens, UniProt Q9Y5S8); experiment: Late-stage luminescence-based cell-based dose response assay to identify inhibitors of NADPH oxidase 1 (NOX1): Purchased analogs 2.; format: functional
# T4 sequence (Q9Y5S8 whole entry): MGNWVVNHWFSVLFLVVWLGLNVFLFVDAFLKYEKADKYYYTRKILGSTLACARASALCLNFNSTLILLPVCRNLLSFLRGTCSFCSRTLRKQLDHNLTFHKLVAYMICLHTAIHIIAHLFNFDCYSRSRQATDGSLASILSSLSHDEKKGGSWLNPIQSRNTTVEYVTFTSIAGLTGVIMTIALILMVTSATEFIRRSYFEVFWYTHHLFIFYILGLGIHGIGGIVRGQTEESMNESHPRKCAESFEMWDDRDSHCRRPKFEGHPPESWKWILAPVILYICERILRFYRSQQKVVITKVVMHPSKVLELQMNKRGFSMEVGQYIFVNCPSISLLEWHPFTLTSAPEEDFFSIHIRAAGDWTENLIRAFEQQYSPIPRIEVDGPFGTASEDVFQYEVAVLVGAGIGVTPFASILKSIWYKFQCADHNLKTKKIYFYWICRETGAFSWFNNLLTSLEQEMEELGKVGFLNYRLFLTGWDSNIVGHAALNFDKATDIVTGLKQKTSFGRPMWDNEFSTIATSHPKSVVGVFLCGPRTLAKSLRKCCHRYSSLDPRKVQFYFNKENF
# Chain of Induced myeloid leukemia cell differentiation protein Mcl-1 (Q07820 whole entry): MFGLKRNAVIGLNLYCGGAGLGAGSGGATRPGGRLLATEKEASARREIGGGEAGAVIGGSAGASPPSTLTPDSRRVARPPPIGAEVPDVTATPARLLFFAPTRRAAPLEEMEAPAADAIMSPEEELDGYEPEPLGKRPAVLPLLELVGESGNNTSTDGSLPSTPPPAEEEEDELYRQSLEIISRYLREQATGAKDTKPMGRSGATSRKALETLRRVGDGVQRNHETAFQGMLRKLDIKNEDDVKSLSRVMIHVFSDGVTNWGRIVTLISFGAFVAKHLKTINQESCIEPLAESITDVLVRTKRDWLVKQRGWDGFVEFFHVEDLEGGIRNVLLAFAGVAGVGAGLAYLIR
smiles,measurement,setting,value
O=C(O)C(C(=O)/C=C/c1ccco1)=C1SCCS1,IC50,[1],21.9 µM (not active)
same,IC50,Bcl-2-like protein 1,> 109 µM (not active)
CCCNc1nc(-c2ccccc2)c(C(=O)OCC)cc1C#N,EC50,BJ [2],26 µM (active)
same,EC50,BJ [3],4.54 µM (inconclusive)
same,EC50,BJ [4],8.98 µM (inconclusive)
same,EC50,[5],16.3 µM (active)
same,IC50,[6],4.2 µM (active)
CCCNC(=O)c1cccc(-n2sc3ccccc3c2=O)c1,IC50,[7],18.4 µM (active)
CN1CCN(CCNC(=O)c2ccc3nc(-c4ccc(F)cc4)c(-c4ccc(F)cc4)nc3c2)CC1,CC50,Vero [8],16.9 µM (active)
same,IC50,[9],4.58 µM (active)
same,IC50,[10],1.58 µM (active)
same,IC50,Vero [11],> 25 µM (active)
same,IC50,Vero [12],21.7 µM (active)
same,IC50,[13],> 1.11 µM (active)
Cc1sc2ncnc(SCC(=O)NC(=O)c3cccn3C)c2c1C,IC50,[14],6.6 µM (active)
same,EC50,[15],7.84 µM (active)
same,IC50,[16],3.97 µM (active)
Cc1ccc(S(=O)(=O)N2Cc3ccccc3CC2C(=O)Nc2ccc3c(c2)OCO3)cc1 (stereo not given),IC50,Genome polyprotein,> 49.8 µM (not active)
O=C(Nc1ncnc2c1ncn2C1OC(COC(=O)c2ccccc2)C(F)C1O)c1ccccc1 (stereo not given),IC50,[17],> 100 µM (not active)
CCOc1ccc2[nH]c(NCCO)nc2c1,EC50,[18],> 112 µM (not active)
same,EC50,[19],0.205 µM (active)
same,EC50,[20],> 100 µM (not active)
O=C(Oc1ccc(-c2cnc3ccccc3n2)cc1)c1ccc(Br)o1,EC50,Estrogen receptor,6.97 µM (active)
same,IC50,[21],> 69.5 µM (not active)
C=C(NNc1c(Cl)c(Cl)nc(C(=O)O)c1Cl)c1ccc2cc(OC)ccc2c1,IC50,NADPH oxidase 1,> 17 µM (not active)
